pIC50: −log10 of the molar value. In brackets after ≈: the same amount, converted by molar mass.
Key:
Aorta [1] = experiment: Vasodilatory activity in Sprague-Dawley rat thoracic aorta smooth muscle assessed as inhibition of KCL-induced vasoconstriction; format: functional, tissue-based
Aorta [2] = experiment: Vasodilatory activity in Sprague-Dawley rat thoracic aorta smooth muscle assessed as inhibition of phenylephrine-induced vasoconstriction; format: functional, tissue-based
HL-60 = experiment: Cytotoxicity against human HL60 cells after 48 hrs by MTT assay; format: functional, cell-based; details: HL-60, 48 h
SW480 = experiment: Cytotoxicity against human SW480 cells after 48 hrs by MTT assay; format: functional, cell-based; details: SW480, 48 h

SMILES | IC50 (Aorta [1]) [µg/mL] | IC50 (Aorta [2]) [µg/mL] | pIC50 (HL-60) | pIC50 (SW480)
CC[C@@H]1CN2CCc3c([nH]c4ccccc34)[C@@H]2C[C@@H]1/C(=C/OC)C(=O)OC [CORYNANTHEIDINE] | > 30 | > 30 | 4.86 | 4.63
CC[C@@H]1CN2CC[C@]3(C(=O)Nc4ccccc43)[C@@H]2C[C@@H]1/C(=C\OC)C(=O)OC [CORYNOXINE B] | > 30 | > 30 | < 4.40 | < 4.40
CC[C@@H]1CN2CC[C@@]3(C(=O)Nc4ccccc43)[C@@H]2C[C@@H]1/C(=C\OC)C(=O)OC [CORYNOXINE] | > 30 | > 30 | < 4.40 | < 4.40
CC[C@H]1CN2CCc3c([nH]c4ccccc34)[C@@H]2C[C@@H]1/C(=C/OC)C(=O)OC [DIHYDROCORYNANTHEINE] | 6.73 (≈ 18.3 µM) | 21.8 (≈ 59.2 µM) | < 4.40 | < 4.40
CC[C@H]1CN2CC[C@@]3(C(=O)Nc4ccccc43)[C@@H]2C[C@@H]1/C(=C\OC)C(=O)OC [ISORHYNCHOPHYLLINE] | > 30 | 18.4 (≈ 47.9 µM) | < 4.40 | < 4.40
CC[C@@H]1[C@@H](/C(=C/OC)C(=O)OC)C[C@@H]2N(CC[C@]23C(=O)Nc2ccccc23)[C@H]1CC(C)=O [MACROPHYLLINE A] | > 30 | 15.9 (≈ 36 µM) | < 4.40 | < 4.40
CC[C@@H]1[C@@H](/C(=C/OC)C(=O)OC)C[C@@H]2N(CC[C@@]23C(=O)Nc2ccccc23)[C@H]1CC(C)=O [MACROPHYLLINE B] | > 30 | > 30 | < 4.40 | < 4.40
CC[C@H]1C[N@@+]2(C)CC[C@]3(C([O-])=Nc4ccccc43)[C@H]2C[C@@H]1/C(=C/OC)C(=O)OC [MACROPHYLLIONIUM] | > 30 | > 30 | < 4.40 | < 4.40
CC[C@H]1CN2CC[C@]3(C(=O)Nc4ccccc43)[C@@H]2C[C@@H]1/C(=C\OC)C(=O)OC [RHYNCHOPHYLLINE] | > 30 | > 30 | < 4.40 | < 4.40
COc1ccc(CCN(C)CCCC(C#N)(c2ccc(OC)c(OC)c2)C(C)C)cc1OC (stereo not drawn) [VERAPAMIL] | 1.41 (≈ 3.1 µM) | 0.32 (≈ 0.704 µM) |  | 

Reference: ChEMBL document CHEMBL1667726, “Macrophyllionium and macrophyllines A and B, oxindole alkaloids from Uncaria macrophylla” (J Nat Prod, 2011)
